Data: US20070167631A1, “Novel herbicides” (priority 2003, published 2007)

How the values were obtained:
Format in all cases: in vivo
[1] = test system: Amaranthus; assay: Microscreen, post-emergence herbicidal action (Example B3); conditions: 250 g/ha, evaluated after 9 or 13 days, scale of eleven ratings (10=total damage, 0=no action)
Procedure: (§1) Example B3 Microscreen, Post-Emergence Herbicidal Action Monocotyledonous and dicotyledonous test plants are sown in sterilised standard soil in seed trays each having 96 cells. […] The plants are grown on in the climatic chamber until the test is evaluated after 9 or 13 days. The test is evaluated in accordance with a scale of eleven ratings (10=total damage, 0=no action). Ratings of from 10 to 7 (especially from 10 to 8) indicate very good to good herbicidal action.

[2] = test system: Nasturtium; assay: as above; conditions: 250 g/ha, evaluated after 9 or 13 days, scale of eleven ratings (10=total damage, 0=no action)
Procedure: as §1

[3] = test system: Solanum; assay: as above; conditions: 250 g/ha, evaluated after 9 or 13 days, scale of eleven ratings (10=total damage, 0=no action)
Procedure: as §1

[4] = test system: Digitaria; assay: as above; conditions: 250 g/ha, evaluated after 9 or 13 days, scale of eleven ratings (10=total damage, 0=no action)
Procedure: (§2) Example B3 Microscreen, Post-Emergence Herbicidal Action Monocotyledonous and dicotyledonous test plants are sown in sterilised standard soil in seed trays each having 96 cells. After 8 to 9 days' cultivation under controlled conditions in a climatic chamber (cultivation at 17/23° C.; 13 hours' light; 50-60% humidity; after application at 19/24° C.), the plants are treated with an aqueous spray solution of 1000 mg/l of the active ingredient used ([…]; incl. 10% DMSO as solvent). The plants are grown on in the climatic chamber until the test is evaluated after 9 or 13 days. The test is evaluated in accordance with a scale of eleven ratings (10=total damage, 0=no action). Ratings of from 10 to 7 (especially from 10 to 8) indicate very good to good herbicidal action.

[5] = test system: Stellaria; assay: as above; conditions: 250 g/ha, evaluated after 9 or 13 days, scale of eleven ratings (10=total damage, 0=no action)
Procedure: as §2

[6] = test system: Amaranthus; assay: Post-emergence herbicidal action (Example B2); conditions: 250 g/ha, after about 18 days, rating scale 10=total damage, 0=no action
Source text: (§3) Monocotyledonous and dicotyledonous test plants are cultivated in a greenhouse in standard soil in plastic pots and, at the 4- to 6-leaf stage, are sprayed with an aqueous suspension of the test compounds of formula I prepared from a 25% wettable powder (Example F3, b) according to WO 97/34485) or with an emulsion of the test compounds of formula I prepared from a 25% emulsifiable concentrate (Example F1, c) according to WO 97/34485), corresponding to concentrations of 125 and 250 g of active ingredient per hectare (500 litres of water per ha). The test plants are then grown on in the greenhouse under optimum conditions. After a test duration of about 18 days, the test is evaluated in accordance with a scale of eleven ratings (10=total damage, 0=no action). Ratings of from 10 to 7 (especially from 10 to 8) indicate very good to good herbicidal action.

[7] = test system: Panicum; assay: Post-emergence herbicidal action (Example B2); conditions: 250 g/ha, after about 18 days, rating scale 10=total damage, 0=no action
Source text: as §3

[8] = test system: Chenopodium; assay: Post-emergence herbicidal action (Example B2); conditions: 250 g/ha, after about 18 days, rating scale 10=total damage, 0=no action
Source text: as §3

[9] = test system: Xanthium; assay: Post-emergence herbicidal action (Example B2); conditions: 250 g/ha, after about 18 days, rating scale 10=total damage, 0=no action
Source text: as §3

[10] = test system: Euphorbia; assay: Post-emergence herbicidal action (Example B2); conditions: 250 g/ha, after about 18 days, rating scale 10=total damage, 0=no action
Source text: as §3

[11] = test system: Stellaria; assay: Post-emergence herbicidal action (Example B2); conditions: 250 g/ha, after about 18 days, rating scale 10=total damage, 0=no action
Source text: as §3

[12] = test system: Echinochloa; assay: Post-emergence herbicidal action (Example B2); conditions: 250 g/ha, after about 18 days, rating scale 10=total damage, 0=no action
Source text: as §3

[13] = test system: Amaranthus; assay: Pre-emergence herbicidal action (Example B1); conditions: 250 g/ha, after 4 weeks, rating scale 10=total damage, 0=no action
Procedure: (§4) Monocotyledonous and dicotyledonous test plants are sown in standard soil in pots or seed trays. Immediately after sowing, the test compounds, in the form of an aqueous suspension (prepared from a wettable powder (Example F3, b) according to WO 97/34485) or in the form of an emulsion (prepared from an emulsifiable concentrate (Example F1, c) according to WO 97/34485), are applied by spraying in a concentration of 250 g/ha. The test plants are then grown in a greenhouse under optimum conditions. After a test duration of 4 weeks, the test is evaluated in accordance with a scale of eleven ratings (10=total damage, 0=no action). Ratings of from 10 to 7 (especially from 10 to 8) indicate very good to good herbicidal action.

[14] = test system: Panicum; assay: Pre-emergence herbicidal action (Example B1); conditions: 250 g/ha, after 4 weeks, rating scale 10=total damage, 0=no action
Procedure: as §4

[15] = test system: Chenopodium; assay: Pre-emergence herbicidal action (Example B1); conditions: 250 g/ha, after 4 weeks, rating scale 10=total damage, 0=no action
Procedure: as §4

[16] = test system: Digitaria; assay: Pre-emergence herbicidal action (Example B1); conditions: 250 g/ha, after 4 weeks, rating scale 10=total damage, 0=no action
Procedure: as §4

[17] = test system: Abutilon; assay: Pre-emergence herbicidal action (Example B1); conditions: 250 g/ha, after 4 weeks, rating scale 10=total damage, 0=no action
Procedure: as §4

[18] = test system: Echinochloa; assay: Pre-emergence herbicidal action (Example B1); conditions: 250 g/ha, after 4 weeks, rating scale 10=total damage, 0=no action
Procedure: as §4

SMILES	Amaranthus, herbicidal action rating [1]	Nasturtium, herbicidal action rating [2]	Solanum, herbicidal action rating [3]	Digitaria, herbicidal action rating [4]	Stellaria, herbicidal action rating [5]	also measured
CCN(CC)c1nc(C(=O)C2=C(O)CCCC2=O)ccc1C(F)(F)F [Compound 1.060]	8	9	8	4	7	
O=C1CCCC(O)=C1C(=O)c1ccc(C(F)(F)F)c(N2CCOCC2)n1 [Compound 1.073]						Post-emergence action: Amaranthus [6]: 10; Post-emergence action: Panicum [7]: 10; Post-emergence action: Chenopodium [8]: 8; Post-emergence action: Xanthium [9]: 9; Post-emergence action: Euphorbia [10]: 9; Post-emergence action: Stellaria [11]: 9; Post-emergence action: Echinochloa [12]: 9; Pre-emergence action: Amaranthus [13]: 6; Pre-emergence action: Panicum [14]: 10; Pre-emergence action: Chenopodium [15]: 10; Pre-emergence action: Digitaria [16]: 10; Pre-emergence action: Abutilon [17]: 10; Pre-emergence action: Echinochloa [18]: 10
O=C1CCCC(O)=C1C(=O)c1ccc(C(F)(F)F)c(-n2cccn2)n1 [Compound 1.080]	7	10	9	5	9	
O=C1CCCC(O)=C1C(=O)c1ccc(C(F)(F)F)c(-n2cncn2)n1 [Compound 1.082]	6	10	9	3	10	
CN(C(=O)c1ccccc1)c1nc(C(=O)C2=C(O)CCCC2=O)ccc1C(F)(F)F [Compound 1.091]	8	9	9	2	6	
O=C1CCCC(O)=C1C(=O)c1ccc(OCC(F)(F)F)c(N2CCOCC2)n1 [Compound 1.094]	9	8	10	8	7	
CC1(c2nc(C(=O)C3=C(O)CCCC3=O)ccc2C(F)(F)F)OCCO1 [Compound 1.192]	8	10	9	7	9	
Cc1cc(-c2nc(C(=O)C3=C(O)CCCC3=O)ccc2C(F)(F)F)on1 [Compound 1.204]	10	10	10	8	10	
O=C1CCCC(O)=C1C(=O)c1ccc(C(F)(F)F)c(-c2ccc(C(F)(F)F)cc2)n1 [Compound 1.209]	9	9	9	8	9	
Cc1nc(C(=O)C2=C(O)CCCC2=O)ccc1C(F)(F)F [Compound 1.211]	8	10	8	5	8	
N#Cc1nc(C(=O)C2=C(O)CCCC2=O)ccc1C(F)(F)F [Compound 1.212]	7	8	8	3	7	
CC(C)=NOCCOc1nc(C(=O)C2=C(O)C(C)(C)C(=O)C(C)(C)C2=O)ccc1C(F)(F)F [Compound 2.010]	8	9	9	3	8	
CCN(CC)c1nc(C(=O)C2=C(O)C(C)(C)C(=O)C(C)(C)C2=O)ccc1C(F)(F)F [Compound 2.060]	9	10	10	9	10	
COCCNc1nc(C(=O)C2=C(O)C(C)(C)C(=O)C(C)(C)C2=O)ccc1C(F)(F)F [Compound 2.064]	8	10	10	9	10	
CC1CN(c2nc(C(=O)C3=C(O)C(C)(C)C(=O)C(C)(C)C3=O)ccc2C(F)(F)F)CC(C)O1 (stereo not drawn) [Compound 2.075]	6	10	10	7	9	
CN(C(=O)c1ccccc1)c1nc(C(=O)C2=C(O)C(C)(C)C(=O)C(C)(C)C2=O)ccc1C(F)(F)F [Compound 2.090]	6	10	10	2	8	
Cc1cc(-c2nc(C(=O)C3=C(O)C(C)(C)C(=O)C(C)(C)C3=O)ccc2C(F)(F)F)on1 [Compound 2.202]	6	10	10	6	10	
